# Reference: US11866430B2, “Naphthyridinone compounds useful as T cell activators” (priority 2018, dated 2024)
# Where two headings read alike, the source gives them in different places.
# Experiments:
# human DGKα = human DGKα (Homo sapiens (Human), UniProt P23743); test: biochemical
# Procedure, shortened: (§1)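 Full-length human DGKα or DGKζ (C-terminal His tag, Sf9-expressed; 20 nM 4× stock) was preincubated 10 min at room temperature with PS/DAG octyl glucoside micelles in MOPS pH 7.5 buffer with MgCl2, CaCl2 and DTT. It was then started with ATP (300 uM addition) and run for 1 hr, with ADP-Glo luminescence read-out.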
# human DGKζ = human DGKζ (Homo sapiens (Human), UniProt Q13574); test: DGKζ assay (detergent/lipid micelle substrate); format: biochemical
# Procedure, shortened: as §1
# [1] = test system: Jurkat AP1-luciferase Reporter; test: DGK AP1-Reporter Assay; format: cell-based; settings: Homo sapiens, Jurkat
# Procedure, shortened: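 Jurkat cells carrying a lentiviral AP1-luciferase reporter received 30 nl compound per well for 20 min at 37 °C and 5% CO2. They were then stimulated for 6 h with anti-CD3 solution at 0.4 μg/mL; reference wells received 4 μg/mL and unstimulated wells medium only. Readout was Steady-Glo luciferase luminescence (RLU).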
# naïve human CD8 T cells = test: CellTiter-Glo CD8 T Cell Proliferation Assay; format: cell-based; settings: Homo sapiens, T-cell, CellTiter-Glo CD8 T cell proliferation, normalized; read-out: CD8 GLO normalized EC50
# Description: Frozen naïve human CD8 T cells were thawed in RPMI+10% FBS, incubated for 2 h in 37° C., and counted. The 384-well tissue culture plate was coated overnight at 4° C. with 20 μl anti-human CD3 at 0.1 μg/mL in plain RPMI, which was removed off the plate before 20 k/40 μl CD8 T cells with 0.5 μg/mL soluble anti-human CD28 were added to each well. The compounds were echoed to the cell plate immediately after the cells were plated. After 72 h incubation at 37° C. incubator, 10 μl CellTiter-glo reagent (Promega catalog number G7570) was added to each well. The plate was vigorously shaken for 5 mins, incubated at room temperature for another 15 mins and read on Envision for CD8 T cell proliferation. In analysis, 0.1 μg/mL anti-CD3 and 0.5 μg/mL anti-CD28 stimulated CD8 T cell signal was background.
# [2] = test system: pre-activated CD4 T cells and Raji cells; test: Raji CD4 T Cell IL2 Assay; format: cell-based; settings: Homo sapiens, Raji
# Human venous whole blood = test: Human Whole Blood IFN-γ Assay; format: cell-based; settings: Homo sapiens
# Description: Human venous whole blood (22.5 μL per well), obtained from healthy donors, was pre-treated with compounds for one hour at 37° C. in a humidified 95% air/5% CO2 incubator. The blood was stimulated with 2.5 μL anti-human CD3 and anti-CD28 mAb at a final concentration of 1 μg/mL each for 24 hours at 37° C. IFN-γ in the supernatants was measured using AlphaLISA kit (Cat #AL217).
# [3] = test system: OT-1 antigen-specific CD8+ T cells with MC38 tumor cells; test: Murine Cytotoxic T Lymphocyte Assay (IFN-γ); format: cell-based, mouse; settings: Mus musculus, MC-38, read-out: msCTL INF-γ IC50, murine CTL IFN-γ (table title reads INF-γ Whole Blood Normalized Agonist EC50)
# Source text: An antigen-specific cytolytic T-cell (CTL) assay was developed to evaluate functionally the ability of DGKα and DGKζ inhibitors to enhance effector T cell mediated tumor cell killing activity. CD8+ T-cells isolated from the OT-1 transgenic mouse recognize antigen presenting cells, MC38, that present the ovalbumin derived peptide […]. Recognition of the cognate antigen initiates the cytolytic activity of the OT-1 antigen-specific CD8+ T cells.
# Functional CTL cells were generated as follows: OT-1 splenocytes from 8-12 week old mice were isolated and expanded in the presence of the […] peptide at 1 μg/mL and mIL2 at 10 U/mL. After three days, fresh media with mIL2 U/mL was added. On day 5 of the expansion, the CD8+ T cells were isolated and ready for use. Activated CTL cells may be stored frozen for 6 months. […] The cells were washed (3×) with fresh media to remove excess peptide. Finally, CTL cells that were pretreated with DGK inhibitors for 1 hour in a 96-well U bottom plate were combined with the antigen loaded MC38 tumor cells at a 1:10 ratio. The cells were then spun at 700 rpm for 5 min and placed in an incubator overnight at 37° C. After 24 hours, the supernatant was collected for analysis of IFN-γ cytokine levels by AlphaLisa purchased from Perkin Elmer.
# [4] = detergent/lipid micelle substrate, read-out: DGKα IC50
# [5] = read-out: API-Luciferase Reporter IC50, Table 3
# [6] = read-out: DGKAP1 Lucif Reporter IC50, Table 4
# [7] = detergent/lipid micelle substrate, read-out: DGKζ IC50
# Sequence of human DGKζ (Q13574 other isoform, or with tags, fused parts or gaps): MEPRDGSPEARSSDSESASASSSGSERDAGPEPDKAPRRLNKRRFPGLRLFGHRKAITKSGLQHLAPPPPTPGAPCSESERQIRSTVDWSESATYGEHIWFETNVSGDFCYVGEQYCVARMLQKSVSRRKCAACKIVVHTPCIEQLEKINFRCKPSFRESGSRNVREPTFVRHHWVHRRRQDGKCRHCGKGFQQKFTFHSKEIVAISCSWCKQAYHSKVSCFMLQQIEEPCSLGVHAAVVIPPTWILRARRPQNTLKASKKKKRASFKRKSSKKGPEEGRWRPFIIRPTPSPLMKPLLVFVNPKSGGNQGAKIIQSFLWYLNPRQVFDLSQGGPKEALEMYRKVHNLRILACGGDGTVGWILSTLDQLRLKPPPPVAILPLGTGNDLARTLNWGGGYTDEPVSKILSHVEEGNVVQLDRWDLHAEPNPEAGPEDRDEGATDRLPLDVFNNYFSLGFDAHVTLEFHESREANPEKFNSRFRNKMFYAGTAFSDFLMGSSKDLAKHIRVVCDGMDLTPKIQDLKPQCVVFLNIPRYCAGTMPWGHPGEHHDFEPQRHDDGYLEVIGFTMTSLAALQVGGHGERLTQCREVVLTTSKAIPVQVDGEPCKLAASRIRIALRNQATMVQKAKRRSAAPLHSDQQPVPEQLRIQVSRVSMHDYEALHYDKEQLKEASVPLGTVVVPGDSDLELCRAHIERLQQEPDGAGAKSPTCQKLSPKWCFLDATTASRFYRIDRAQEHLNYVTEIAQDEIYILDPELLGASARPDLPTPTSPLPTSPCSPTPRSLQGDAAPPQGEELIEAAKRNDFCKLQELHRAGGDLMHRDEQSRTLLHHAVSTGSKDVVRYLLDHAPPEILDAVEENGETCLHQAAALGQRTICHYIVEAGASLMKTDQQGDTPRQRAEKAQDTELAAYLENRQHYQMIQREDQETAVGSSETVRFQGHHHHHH
# Sequence of human DGKα (P23743 other isoform, or with tags, fused parts or gaps): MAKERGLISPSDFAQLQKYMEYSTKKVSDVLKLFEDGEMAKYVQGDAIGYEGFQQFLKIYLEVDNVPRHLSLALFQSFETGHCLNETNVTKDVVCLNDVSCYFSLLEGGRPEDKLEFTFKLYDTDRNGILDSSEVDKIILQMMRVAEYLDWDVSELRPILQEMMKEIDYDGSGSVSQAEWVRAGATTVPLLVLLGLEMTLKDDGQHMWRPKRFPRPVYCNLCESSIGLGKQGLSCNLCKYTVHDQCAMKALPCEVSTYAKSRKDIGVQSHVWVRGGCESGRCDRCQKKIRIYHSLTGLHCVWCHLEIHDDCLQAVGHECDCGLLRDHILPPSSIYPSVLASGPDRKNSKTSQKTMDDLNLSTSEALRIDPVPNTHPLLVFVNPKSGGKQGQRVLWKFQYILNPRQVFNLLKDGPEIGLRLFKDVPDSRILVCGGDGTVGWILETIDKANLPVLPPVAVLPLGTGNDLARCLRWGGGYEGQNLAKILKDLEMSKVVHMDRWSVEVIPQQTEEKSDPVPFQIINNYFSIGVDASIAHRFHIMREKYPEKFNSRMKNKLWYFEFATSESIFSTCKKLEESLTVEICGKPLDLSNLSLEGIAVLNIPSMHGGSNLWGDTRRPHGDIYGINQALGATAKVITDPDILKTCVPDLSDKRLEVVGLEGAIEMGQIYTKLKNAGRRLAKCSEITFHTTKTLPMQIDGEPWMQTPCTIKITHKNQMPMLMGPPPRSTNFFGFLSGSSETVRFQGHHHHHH
compound,measurement,setting,value
"CC(c1ccc(F)cc1)N1CCN(c2c(C#N)c(=O)n(CC3CC3)c3ccc(Br)nc23)CC1 (racemic) [Example 162, 6-bromo-1-(cyclopropylmethyl)-4-(4-(1-(4-fluorophenyl)ethyl)piperazin-1-yl)-2-oxo-1,2-dihydro-1,5-naphthyridine-3-carbonitrile]",IC50,human DGKα; [4],160 µM
same,IC50,"human DGKζ; DGKζ IC50, detergent/lipid micelle substrate",> 240 µM
same,IC50,[1]; [5],4.81 µM
same,IC50,[1]; [6],10 µM
same,EC50,naïve human CD8 T cells,10 µM
"C#CCn1c(=O)c([N+](=O)[O-])c(N2CCN(C(c3ccc(F)cc3)c3ccccc3OC)CC2)c2nc(C#N)ccc21 (racemic) [Example 129, 8-(4-((4-fluorophenyl)(2-methoxyphenyl)methyl)piperazin-1-yl)-7-nitro-6-oxo-5-(prop-2-yn-1-yl)-5,6-dihydro-1,5-naphthyridine-2-carbonitrile]",IC50,human DGKα; [4],4.2 µM
same,IC50,human DGKζ; [7],0.18 µM
same,IC50,[1]; [6],0.87 µM
same,EC50,naïve human CD8 T cells,0.06 µM
"COc1ccc2c(c1)C(N1CCN(c3c(C#N)c(=O)n(CC#N)c4ccc(Br)nc34)CC1)CC2 (stereo not shown) [Example 156, 6-bromo-1-(cyanomethyl)-4-(4-(6-methoxy-2,3-dihydro-1H-inden-1-yl)piperazin-1-yl)-2-oxo-1,2-dihydro-1,5-naphthyridine-3-carbonitrile]",IC50,human DGKα; [4],170 µM
same,IC50,[2],> 100 µM
same,IC50,human DGKζ; [7],140 µM
same,IC50,[1]; [5],10 µM
same,IC50,[1]; [6],10 µM
same,EC50,naïve human CD8 T cells,0.14 µM
"COCCn1c(=O)c([N+](=O)[O-])c(N2CCN(C(c3ccc(F)cc3)c3ccccc3O)CC2)c2nc(C#N)ccc21 (stereo not shown) [Example 145, 8-(4-((4-fluorophenyl)(2-hydroxyphenyl)methyl)piperazin-1-yl)-5-(2-methoxyethyl)-7-nitro-6-oxo-5,6-dihydro-1,5-naphthyridine-2-carbonitrile]",IC50,human DGKα; [4],30 µM
same,EC50,"Human venous whole blood; human whole blood, anti-CD3 plus anti-CD28 as baseline, 3 μM Example 40 co-stimulation as 100% activation, read-out: INF-γ Whole Blood Normalized Agonist EC50",1.87 µM
same,EC50,Human venous whole blood; read-out: INF-γ Whole Blood Agonist EC50,1.33 µM
same,IC50,human DGKζ; [7],2.3 µM
same,IC50,[1]; [5],0.57 µM
same,IC50,[3],0.46 µM
"Cn1c(=O)c([N+](=O)[O-])c(N2CCN(C(c3ccc(F)cc3)C3CC3)CC2)c2nc(C#N)ccc21 (racemic) [Example 49, 8-(4-(cyclopropyl(4-fluorophenyl)methyl)piperazin-1-yl)-5-methyl-7-nitro-6-oxo-5,6-dihydro-1,5-naphthyridine-2-carbonitrile]",IC50,"human DGKα; DGKα IC50, detergent/lipid micelle substrate",0.18 µM
same,IC50,human DGKζ; [7],> 240 µM
same,IC50,[1]; [6],1.7 µM
same,EC50,naïve human CD8 T cells,0.17 µM
